In the NIST ThermoML archive (doi:10.1021/je050305z):
± gives the expanded uncertainty stated by the source.

Conditions: Gas, Hot wire method

## N#N [nitrogen]
235.41 K, 3405.4 kPa
  thermal conductivity: 0.02334 ± 0.00057 W/m/K
235.72 K, 3405.4 kPa
  thermal conductivity: 0.02333 ± 0.00057 W/m/K
255.55 K, 5432.8 kPa
  thermal conductivity: 0.026 ± 0.00063 W/m/K
255.7 K, 1281.1 kPa
  thermal conductivity: 0.02332 ± 0.00057 W/m/K
255.86 K, 5432.8 kPa
  thermal conductivity: 0.02596 ± 0.00063 W/m/K
256.26 K, 1281.1 kPa
  thermal conductivity: 0.02323 ± 0.00056 W/m/K
275.39 K, 5057.3 kPa
  thermal conductivity: 0.02674 ± 0.00065 W/m/K
275.41 K, 1027.7 kPa
  thermal conductivity: 0.02441 ± 0.00059 W/m/K
276.05 K, 5057.3 kPa
  thermal conductivity: 0.0269 ± 0.00065 W/m/K
276.11 K, 1027.7 kPa
  thermal conductivity: 0.02435 ± 0.00059 W/m/K
295.15 K, 1844.1 kPa
  thermal conductivity: 0.02606 ± 0.00063 W/m/K
295.25 K, 4380.8 kPa
  thermal conductivity: 0.02731 ± 0.00066 W/m/K
295.68 K, 1844.1 kPa
  thermal conductivity: 0.02599 ± 0.00063 W/m/K
295.92 K, 4380.8 kPa
  thermal conductivity: 0.02738 ± 0.00066 W/m/K
325.32 K, 716 kPa
  thermal conductivity: 0.02758 ± 0.00066 W/m/K
325.43 K, 2042.9 kPa
  thermal conductivity: 0.02842 ± 0.00068 W/m/K
326.2 K, 2042.9 kPa
  thermal conductivity: 0.02845 ± 0.00068 W/m/K
326.23 K, 4941.8 kPa
  thermal conductivity: 0.02961 ± 0.00071 W/m/K
326.39 K, 716 kPa
  thermal conductivity: 0.02763 ± 0.00066 W/m/K
